Among the test systems are UACC-62; SN12C; HOP-92; MDA-MB-435; SNB-19; SNB-75; UO-31; OVCAR-3; HCT-15; DU-145; M14; MCF7; Malme-3M; HT-29; OVCAR-8; SF-295; SF-268; LOX IMVI; U-251; EKVX.
Common to all, as to test: DTP human tumour cell line panel, 48 h

The record followed here is ChEMBL document CHEMBL1201862, “PubChem BioAssay data set” (2004).

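48-hour exposure; five concentrations; linearly interpolated endpoints. GI50 = concentration required for 50% inhibition of growth.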 The source made the active and inactive calls. Rule as the data show it: active = GI50 up to about 1.1 µM and inactive = higher.

Regarding `O=C(O)CNCCc1ccccc1`, the GI50 with UACC-62, in the experiment with SN12C, in the experiment on HOP-92, in the experiment with MDA-MB-435, with SNB-19 and with SNB-75 was > 100 µM (inactive) in each case. The GI50 is > 100 µM (inactive) with UO-31; > 100 µM (inactive) in the experiment with OVCAR-3; greater than 100 µM with HCT-15; > 100 µM (inactive) with DU-145; > 100 µM (inactive) with M14; > 100 µM (inactive) in the experiment with MCF7. For the same compound, the GI50 in the experiment on Malme-3M, in the experiment on HT-29, with OVCAR-8, in the experiment on SF-295, in the experiment on SF-268 and in the experiment with LOX IMVI was > 100 µM (inactive) each time. In addition, the GI50 in the experiment with U-251 and in the experiment on EKVX was > 100 µM (inactive) in each case.

In the case of `O=C(O)CCS/C(=C\C(SCCC(=O)O)c1ccc(Cl)cc1)c1ccc(Cl)cc1` (stereo not given), the GI50 is 18.4 µM (inactive) in the experiment on UACC-62; 50 µM (inactive) with SN12C; 25.8 µM (inactive) in the experiment with HOP-92; 36.4 µM (inactive) with MDA-MB-435; 40.7 µM (inactive) with SNB-19; 78.3 µM (inactive) in the experiment on SNB-75. The GI50 with UO-31 was 78 µM (inactive); in the experiment on OVCAR-3, 21.6 µM (inactive); with HCT-15, 30.8 µM; in the experiment with DU-145 it was 57.9 µM (inactive); with M14, 47.9 µM (inactive); in the experiment with MCF7, 21.3 µM (inactive). Moreover, the GI50 with Malme-3M was 76.4 µM (inactive); with HT-29, 43.6 µM (inactive); in the experiment on OVCAR-8 it was 53.5 µM (inactive); in the experiment on SF-295 it was 33.4 µM (inactive); with SF-268 it was 50 µM (inactive); with LOX IMVI, 25.5 µM (inactive). In addition, the GI50 was 33.5 µM (inactive) in the experiment with U-251 and 62.5 µM (inactive) in the experiment with EKVX.

In the case of `CNC(=O)N(CCC#N)CCN(C(=O)NC)c1ccccc1`, the GI50 with UACC-62 is > 100 µM (inactive); with SN12C, > 100 µM (inactive); in the experiment on HOP-92, > 100 µM (inactive); with MDA-MB-435 it was > 100 µM (inactive); in the experiment with SNB-19, > 100 µM (inactive); in the experiment with SNB-75, 65 µM (inactive). Besides, the GI50 with UO-31 was > 100 µM (inactive); in the experiment on OVCAR-3, > 100 µM (inactive); with HCT-15, greater than 100 µM; in the experiment with DU-145 it was > 100 µM (inactive); with M14 it was > 100 µM (inactive); in the experiment on MCF7 it was > 100 µM (inactive). The GI50 in the experiment on Malme-3M was > 73.8 µM (inactive); in the experiment with HT-29 it was > 100 µM (inactive); in the experiment with OVCAR-8, > 100 µM (inactive); in the experiment on SF-295, > 100 µM (inactive); in the experiment with SF-268, > 100 µM (inactive); in the experiment on LOX IMVI it was > 100 µM (inactive). Besides, the GI50 in the experiment on U-251 and in the experiment on EKVX was > 100 µM (inactive) throughout.

On to `CN(C)/C=C/c1nnnn1-c1ccc(I)cc1`, for which the GI50 was 12.4 µM (inactive) in the experiment on UACC-62; 14.9 µM (inactive) with SN12C; 14.2 µM (inactive) in the experiment on HOP-92; 20.5 µM (inactive) in the experiment on MDA-MB-435; 20.3 µM (inactive) in the experiment with SNB-19; 11.1 µM (inactive) in the experiment with SNB-75. Further, the GI50 in the experiment on UO-31 is 17.6 µM (inactive); in the experiment with OVCAR-3, 23.6 µM (inactive); in the experiment with HCT-15, 13.5 µM; in the experiment with DU-145, 28.2 µM (inactive); in the experiment with M14 it was 14.3 µM (inactive); with MCF7, 12 µM (inactive). Further, the GI50 with Malme-3M is 21 µM (inactive); in the experiment on HT-29 it was 22.9 µM (inactive); in the experiment on OVCAR-8 it was 19.5 µM (inactive); with SF-295, 25.8 µM (inactive); with SF-268, 17.5 µM (inactive); in the experiment with LOX IMVI it was 16.6 µM (inactive). For the same compound, the GI50 in the experiment on U-251 is 11.9 µM (inactive); in the experiment on EKVX, 21.6 µM (inactive).

Turning to `[O-]/[N+](=N/c1ncc(-c2ccccc2)cn1)c1ncc(-c2ccccc2)cn1`, the GI50 with UACC-62 was > 100 µM (inactive); in the experiment on SN12C, > 100 µM (inactive); in the experiment on HOP-92, 69 µM (inactive); in the experiment with MDA-MB-435, 40.5 µM (inactive); in the experiment on SNB-19, > 58.3 µM (inactive); in the experiment with SNB-75, > 100 µM (inactive). The GI50 was > 66.1 µM (inactive) with UO-31; > 83.8 µM (inactive) in the experiment on OVCAR-3; 36.4 µM with HCT-15; > 100 µM (inactive) in the experiment on DU-145; > 100 µM (inactive) with M14; 36 µM (inactive) with MCF7. The GI50 in the experiment with Malme-3M was 32.2 µM (inactive); in the experiment with HT-29, > 78 µM (inactive); in the experiment on OVCAR-8 it was > 96.6 µM (inactive); in the experiment with SF-295 it was 73.5 µM (inactive); in the experiment on SF-268 it was > 84.7 µM (inactive); with LOX IMVI it was 43.4 µM (inactive). For the same compound, the values for the GI50 in the experiment on U-251 and in the experiment on EKVX were 44.1 µM (inactive) and 63.5 µM (inactive), respectively.

With `Nc1ccc(-c2nc3ccccc3s2)cc1`, the GI50 in the experiment on UACC-62 was 18.4 µM (inactive); in the experiment with SN12C it was 19.1 µM (inactive); in the experiment with HOP-92, 11.4 µM (inactive); in the experiment on MDA-MB-435, 17.9 µM (inactive); with SNB-19, 28.1 µM (inactive); in the experiment with SNB-75, 23.8 µM (inactive). Moreover, the GI50 in the experiment with UO-31 is 12.6 µM (inactive); in the experiment with OVCAR-3 it was 13.3 µM (inactive); with HCT-15, 19.5 µM; in the experiment with DU-145, 16.4 µM (inactive); in the experiment on M14, 18.6 µM (inactive); in the experiment with MCF7 it was 19.1 µM (inactive). Further, the GI50 in the experiment on Malme-3M is 17.6 µM (inactive); in the experiment on HT-29, 19.4 µM (inactive); in the experiment on OVCAR-8, 12.8 µM (inactive); with SF-295, 29.9 µM (inactive); in the experiment with SF-268, 10.3 µM (inactive); in the experiment on LOX IMVI, 16.8 µM (inactive). The GI50 is 17.4 µM (inactive) in the experiment with U-251 and 33.2 µM (inactive) with EKVX.

`Nc1ncnc2c1ncn2C1C=C(CO)C(O)C1O` (stereo not given): the GI50 in the experiment with UACC-62 is 3.56 µM (inactive); in the experiment with SN12C, 7.03 µM (inactive); with HOP-92, 7.55 µM (inactive); in the experiment on MDA-MB-435, 3.08 µM (inactive); with SNB-19 it was 16 µM (inactive); in the experiment with SNB-75, 7.55 µM (inactive). Also, the GI50 was 0.41 µM (active) with UO-31; 5.01 µM (inactive) in the experiment with OVCAR-3; 0.468 µM with HCT-15; 5.69 µM (inactive) with DU-145; 9.57 µM (inactive) with M14; 0.197 µM (active) in the experiment on MCF7. The GI50 in the experiment with Malme-3M was 5.33 µM (inactive); in the experiment with HT-29, 2.06 µM (inactive); in the experiment with OVCAR-8 it was 3.75 µM (inactive); in the experiment on SF-295 it was 24.5 µM (inactive); in the experiment on SF-268, 10.1 µM (inactive); in the experiment with LOX IMVI, 3 µM (inactive). Besides, the GI50 with U-251 is 10.4 µM (inactive); in the experiment on EKVX it was 25.8 µM (inactive).

The term GI50 denotes the concentration at which growth is held to half of that of the control.
